Test results published in the NIST ThermoML archive (doi:10.1021/acs.jced.7b00201).

What was measured:
[1] = 100 kPa, Liquid; for viscosity: Falling or rolling sphere viscometry; for mass density: Vibrating tube method
[2] = xn = mol fraction of the nth substance listed; conditions: 100 kPa, Liquid; for viscosity: Falling or rolling sphere viscometry; for mass density: Vibrating tube method

CCCCC1CCCCC1 [butylcyclohexane]
[1]
Conditions | mass density [kg/m3] | viscosity [mPa·s]
293.15 K | 799.34 | 1.305
298.15 K | 795.59 | 1.202
303.15 K | 791.84 | 1.112
308.15 K | 788.07 | 1.033
313.15 K | 784.3 | 0.963
318.15 K | 780.52 | 0.901
323.15 K | 776.74 | 0.844
328.15 K | 772.93 | 0.794
333.15 K | 769.13 | 0.749
338.15 K | 765.3 | 0.708
343.15 K | 761.47 | 0.67

CCCCC1CCCCC1 [butylcyclohexane] + OCC1CC1
[2], x2 = 0
Conditions | mass density [kg/m3] | viscosity [mPa·s]
293.15 K | 799.34 | 1.305
298.15 K | 795.59 | 1.202
303.15 K | 791.84 | 1.112
308.15 K | 788.07 | 1.033
313.15 K | 784.3 | 0.963
318.15 K | 780.52 | 0.901
323.15 K | 776.74 | 0.844
328.15 K | 772.93 | 0.794
333.15 K | 769.13 | 0.749
338.15 K | 765.3 | 0.708
343.15 K | 761.47 | 0.67

OCC1CC1 [cyclopropylmethanol]
[1]
Conditions | mass density [kg/m3] | viscosity [mPa·s]
293.15 K | 912.99 | 4.029
298.15 K | 908.94 | 3.485
303.15 K | 904.85 | 3.037
308.15 K | 900.74 | 2.661
313.15 K | 896.58 | 2.344
318.15 K | 892.38 | 2.074
323.15 K | 888.13 | 1.843
328.15 K | 883.84 | 1.646
333.15 K | 879.49 | 1.476
338.15 K | 875.07 | 1.328
343.15 K | 870.62 | 1.201

CCCCCCCCCCCC [dodecane]
[1]
Conditions | mass density [kg/m3] | viscosity [mPa·s]
293.15 K | 748.83 | 1.481
298.15 K | 745.23 | 1.355
303.15 K | 741.6 | 1.244
308.15 K | 737.97 | 1.151
313.15 K | 734.33 | 1.066
318.15 K | 730.68 | 0.992
323.15 K | 727.01 | 0.926
328.15 K | 723.35 | 0.867
333.15 K | 719.67 | 0.814
338.15 K | 715.98 | 0.765
343.15 K | 712.28 | 0.724

CCCCCCCCCCCC [dodecane] + CCCCC1CCCCC1
[2], x1 = 1
Conditions | mass density [kg/m3] | viscosity [mPa·s]
293.15 K | 748.83 | 1.481
298.15 K | 745.23 | 1.355
303.15 K | 741.6 | 1.244
308.15 K | 737.97 | 1.151
313.15 K | 734.33 | 1.066
318.15 K | 730.68 | 0.992
323.15 K | 727.01 | 0.926
328.15 K | 723.35 | 0.867
333.15 K | 719.67 | 0.814
338.15 K | 715.98 | 0.765
343.15 K | 712.28 | 0.724

CCCCCCCCCCCC [dodecane] + OCC1CC1
[2], x2 = 0
Conditions | mass density [kg/m3] | viscosity [mPa·s]
293.15 K | 748.83 | 1.481
298.15 K | 745.23 | 1.355
303.15 K | 741.6 | 1.244
308.15 K | 737.97 | 1.151
313.15 K | 734.33 | 1.066
318.15 K | 730.68 | 0.992
323.15 K | 727.01 | 0.926
328.15 K | 723.35 | 0.867
333.15 K | 719.67 | 0.814
338.15 K | 715.98 | 0.765
343.15 K | 712.28 | 0.724
